Experimental data as given in patent publication US9763444B2, “Compositions and methods for repelling blood-sucking and biting insects, ticks and mites” (The United States of America, as represented by the …, priority 2013, dated 2017).

Tests used:
Ae. aegypti = assay: Minimum Effective Dosage (MED) test on treated cloth, mosquito repellency; format: in vivo, Aedes aegypti; settings: for Ae. aegypti Minimum Effective Dosage, M9: human subject M9; for Ae. aegypti Minimum Effective Dosage, M10: human subject M10
Procedure: Bioassay for mosquito repellent activity: Repellency screening test for experimental chemicals were carried out to identify candidates that might be useful repellents. The repellent efficacy was compared to that of the standard repellent, DEET. Experimental compounds were assessed in one of two ways: (1) a range of concentration was evaluated to determine the minimum effective dosage (MED) which was the concentration threshold of where the repellent began to fail and allowed bites, or (2) a predetermined concentration of each repellent was applied to cloth and the activity was evaluated over several days (or in some cases months) (Katritzky, A. R., et al., Proc. Nat. Acad. Sci. (US), 105, 7359-7364 (2008); Katritzky, A. R., et al., Journal of Med. Entomol., 47: 924-938 (2010)). When conducting assays for repellency, a failure point was also predetermined for those measurements. Since experiments described herein used about 500 female mosquitoes per test, the failure point was set at 1% (equal to 5 bites) received during a test interval. From 3 to 5 volunteers participated in the screening of each set of chemicals.
Minimum Effective Dosage (MED) Test: The MED bioassays on treated cloth were a method of screening to determine the minimum amount of a repellent needed to prevent bites. Experimental compounds were prepared in solution by combining 0.15 g of experimental chemical with 2 mL of acetone in a 7.1 mL screwtop glass vial. This solution was then serially diluted to obtain nine concentrations when applied on to the cloth patch: 1.5, 0.75, 0.375, 0.187, 0.094, 0.047, 0.023, 0.011, and 0.006 mg/cm^2. The standard N,N-diethyl-3-methylbenzamide (DEET) was also tested at the same concentration levels to serve as a control and a comparison for relative repellency. A 50 cm^2 (5 cm×10 cm) patch of muslin cloth was rolled lengthwise and placed into each of the glass vials and scaled with a screwtop so it soaked up the solution. Just prior to the experiment, the pieces of treated cloth were removed from the vials, affixed to card stock tabs (5 cm×3 cm) with staples, and hung with masking tape on a rack to dry and allow acetone to evaporate. Volunteers wore a latex glove over their hands, a nylon stocking over their arm, and then wrapped a plastic Velcro-sealed sleeve over their entire forearm with a 32 cm^2 (4 cm×8 cm) window cut-out to allow mosquitoes to bite through. The nylon stocking acted as a barrier between the dried cloth and the skin, an additional precaution with experimental compounds. Dried cloth patches were stretched across the window in the plastic sleeve and held in place with masking tape. Volunteers placed their sleeve-covered arms into a screened cage for a one minute period with approximately 500 female Ae. aegypti mosquitoes that had been preselected for host-seeking behavior using a draw box (Posey, K. H., and C. E. Schreck, Mosquito News, 41: 566-568 (1981)). […] The MED recorded was the lowest passing concentration level tested for the experimental compound. […] All human volunteers in the study provided informed consent to participate of a protocol approved by the University of Florida Human Use Institutional Review Board (IRB #636-2005).

female Aedes aegypti = assay: Knock down (KD) after forced contact with treated muslin cloth (insecticidal properties); format: in vivo; settings: 2 min forced exposure to treated cloth
Procedure: The minimum effective dosage (MED) for repellency of 99% of mosquitoes was determined by wearing treated muslin cloth with varying concentrations of the chemical. At a surface concentration of 0.011 mg/cm^2, nearly all mosquitoes are repelled from the surface. The insecticidal properties required a much higher concentration of 2. All tests were conducted by forcing mosquitoes (5 per replicate×5 replicates) into contact with treated muslin cloth.

[1] = Table 1 preliminary assay, human subject M4, highest concentration 1.500 mg/cm^2
[2] = Table 1 preliminary assay, human subject M5, highest concentration 1.500 mg/cm^2
[3] = Table 1 preliminary assay, human subject M8, highest concentration 1.500 mg/cm^2
[4] = Table 1 preliminary assay, highest concentration 1.500 mg/cm^2
[5] = Table 1 preliminary assay, mean of 5 volunteers
[6] = Table 5, subject M4, highest dose 0.375 mg/cm2 (0.187 for 7)
[7] = Table 5, subject M5, highest dose 0.375 mg/cm2 (0.187 for 7)
[8] = Table 5, subject M8, highest dose 0.375 mg/cm2 (0.187 for 7)

CC1(C)C=Cc2c(CO)cccc2O1 [Compound 2]
mosquito repellent activity against Ae. aegypti (in words) (Ae. aegypti; MED test on treated cloth): act as mosquito repellents
Ae. aegypti Minimum Effective Dosage, M4 (Ae. aegypti; [1]): 0.011 mg/cm^2
Ae. aegypti Minimum Effective Dosage, M5 (Ae. aegypti; [2]): 0.011 mg/cm^2
Ae. aegypti Minimum Effective Dosage, M8 (Ae. aegypti; [3]): 0.011 mg/cm^2
Ae. aegypti Minimum Effective Dosage, M9 (Ae. aegypti; [4]): 0.094 mg/cm^2
Ae. aegypti Minimum Effective Dosage, M10 (Ae. aegypti; [4]): 0.047 mg/cm^2
Ae. aegypti Minimum Effective Dosage, Average (Ae. aegypti; [5]): 0.035 mg/cm^2
Ae. aegypti Minimum Effective Dosage, F1 (Ae. aegypti; Table 2, human subject F1, highest concentration 1.500 mg/cm^2): 0.023 mg/cm^2
Ae. aegypti Minimum Effective Dosage, M1 (Ae. aegypti; Table 2, human subject M1, highest concentration 1.500 mg/cm^2): 0.023 mg/cm^2
Ae. aegypti Minimum Effective Dosage, M2 (Ae. aegypti; Table 2, human subject M2, highest concentration 1.500 mg/cm^2): 0.023 mg/cm^2
Ae. aegypti Minimum Effective Dosage, Average (Ae. aegypti; Table 2, mean of 3 volunteers): 0.023 mg/cm^2
Ae. aegypti Minimum Effective Dosage, Average (Ae. aegypti; Table 5, mean of 3 volunteers): 0.009 mg/cm^2
Ae. aegypti Minimum Effective Dosage, M4 (Ae. aegypti; [6]): 0.011 mg/cm^2
Ae. aegypti Minimum Effective Dosage, M5 (Ae. aegypti; [7]): 0.011 mg/cm^2
Ae. aegypti Minimum Effective Dosage, M8 (Ae. aegypti; [8]): 0.006 mg/cm^2
MED for ~100% Repellency (ED99), surface concentration (Ae. aegypti; Table 7, treated cloth, female Aedes aegypti): 0.011 mg/cm^2
KD100 @ 1 h, surface concentration (female Aedes aegypti; knock down counted after 1 h): 15.38 mg/cm^2
KD100 @ 5 h, surface concentration (female Aedes aegypti; knock down counted after 5 h): 7.69 mg/cm^2
KD100 @ 8 h, surface concentration (female Aedes aegypti; knock down counted after 8 h): 0.96 mg/cm^2

CCN(CC)C(=O)c1cccc(C)c1 [DEET, N,N-diethyl-3-methylbenzamide, reference compound]
Ae. aegypti Minimum Effective Dosage, M4 (Ae. aegypti; [1]): 0.111 mg/cm^2
Ae. aegypti Minimum Effective Dosage, M5 (Ae. aegypti; [2]): 0.023 mg/cm^2
Ae. aegypti Minimum Effective Dosage, M8 (Ae. aegypti; [3]): 0.023 mg/cm^2
Ae. aegypti Minimum Effective Dosage, M9 (Ae. aegypti; [4]): 0.023 mg/cm^2
Ae. aegypti Minimum Effective Dosage, M10 (Ae. aegypti; [4]): 0.023 mg/cm^2
Ae. aegypti Minimum Effective Dosage, Average (Ae. aegypti; [5]): 0.021 mg/cm^2
Ae. aegypti Minimum Effective Dosage, Average (Ae. aegypti; Table 5, mean of 3 volunteers): 0.015 mg/cm^2
Ae. aegypti Minimum Effective Dosage, M4 (Ae. aegypti; [6]): 0.011 mg/cm^2
Ae. aegypti Minimum Effective Dosage, M5 (Ae. aegypti; [7]): 0.011 mg/cm^2
Ae. aegypti Minimum Effective Dosage, M8 (Ae. aegypti; [8]): 0.023 mg/cm^2
